According to ChEMBL document CHEMBL1152177, “Imidazole pyrimidine amides as potent, orally bioavailable cyclin-dependent kinase inhibitors” (Bioorg Med Chem Lett, 2008):

Assays:
[1] = AUC in Han-Wistar rat at 20 umol/kg, po; type: ADME, organism-based; details: plasma
[2] = Half life in Han-Wistar rat at 1.0 umol/kg, iv; type: ADME, organism-based; details: in vivo
[3] = AUC in Han-Wistar rat at 5 umol/kg, po; type: ADME, organism-based; details: plasma
[4] = AUC in Han-Wistar rat at 1.0 umol/kg, iv; type: ADME, organism-based; details: plasma
[5] = Volume of distribution at steady state in nude mouse at 2.0 umol/kg, iv; type: ADME, organism-based; details: in vivo, read-out: Vdss
[6] = AUC in nude mouse at 2.0 umol/kg, iv; type: ADME, organism-based; details: plasma
[7] = Volume of distribution at steady state in Han-Wistar rat at 1.0 umol/kg, iv; type: ADME, organism-based; details: in vivo, read-out: Vdss
[8] = Clearance in nude mouse at 2.0 umol/kg, iv; type: ADME, organism-based; details: in vivo
[9] = Clearance in Han-Wistar rat at 1.0 umol/kg, iv; type: ADME, organism-based; details: in vivo
[10] = Bioavailability in Han-Wistar rat at 20 umol/kg, po; type: ADME, organism-based; details: in vivo
[11] = Half life in nude mouse at 2.0 umol/kg, iv; type: ADME, organism-based; details: in vivo
[12] = Distribution coefficient, log D of the compound; type: physicochemical; details: octanol/water
[13] = Bioavailability in Han-Wistar rat at 5 umol/kg, po; type: ADME, organism-based; details: in vivo

CNC(=O)c1ccc(Nc2nccc(-c3cnc(C)n3C(C)C)n2)cc1F
AUC [1]: 13.7 µM·h | half-life [2]: 5.8 h | AUC [3]: 1.5 µM·h | AUC [4]: 1.4 µM·h | Vd [5]: 9.5 L/kg | AUC [6]: 1.8 µM·h | Vd [7]: 1.7 L/kg | clearance [8]: 18.5 mL/min/kg | clearance [9]: 11.9 mL/min/kg | bioavailability [10]: 47% | half-life [11]: 16.7 h | logD [12]: 3 | bioavailability [13]: 21%
